PubChem BioAssay (NCI)
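GI50 marks 50% less growth. The concentration for full growth arrest is given as TGI.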

Key:
Test in all cases: inhibition of tumour cell growth, NCI panel, 384-well format
[1] = tested on: UACC-257 melanoma
[2] = tested on: SK-MEL-5 melanoma
[3] = tested on: 786-0 renal
[4] = tested on: MDA-MB-231 breast
[5] = tested on: LOX IMVI melanoma
[6] = tested on: PC-3 prostate
[7] = tested on: DU-145 prostate
[8] = tested on: CAKI-1 renal
[9] = tested on: HT29 colon
[10] = tested on: SF-295 CNS
[11] = tested on: NCI/ADR-RES ovarian
[12] = tested on: MOLT-4 leukemia
[13] = tested on: MDA-MB-468 breast
[14] = tested on: OVCAR-8 ovarian
[15] = tested on: T-47D breast
[16] = tested on: CCRF-CEM leukemia
[17] = tested on: HCC-2998 colon
[18] = tested on: ACHN renal
[19] = tested on: MCF7 breast
[20] = tested on: SK-MEL-28 melanoma
[21] = tested on: SW-620 colon
[22] = tested on: COLO 205 colon
[23] = tested on: HOP-62 NSCLC
[24] = tested on: NCI-H23 lung
[25] = tested on: MALME-3M melanoma
[26] = tested on: NCI-H226 lung
[27] = tested on: KM12 colon
[28] = tested on: A498 renal
[29] = tested on: HCT-116 colon
[30] = tested on: A549 NSCLC
[31] = tested on: UACC-62 melanoma
[32] = tested on: SF-539 CNS
[33] = tested on: UO-31 renal
[34] = tested on: NCI-H322M lung
[35] = tested on: M14 melanoma
[36] = tested on: SN12C renal
[37] = tested on: HL-60(TB) leukemia
[38] = tested on: U251 glioblastoma
[39] = tested on: HS 578T breast
[40] = tested on: BT-549 breast
[41] = tested on: NCI-H522 lung
[42] = tested on: OVCAR-5 ovarian
[43] = tested on: SNB-19 CNS
[44] = tested on: OVCAR-3 ovarian
[45] = tested on: SNB-75 CNS
[46] = tested on: RXF 393 renal
[47] = tested on: SF-268 CNS

## Cc1ccc2c(N)c(C(=O)N[C@H]3CCc4cc(N5CC6CCC(C5)N6)ccc4C3)sc2n1
[1]
  GI50: 194 nM
  TGI: 775 nM
[2]
  GI50: 111 nM
  TGI: 436 nM
[3]
  GI50: 229 nM
  TGI: 997 nM
[4]
  GI50: 219 nM
  TGI: 972 nM
[5]
  GI50: 88.7 nM
  TGI: 268 nM
[6]
  GI50: 222 nM
  TGI: 989 nM
[7]
  GI50: 104 nM
  TGI: 605 nM
[8]
  GI50: 234 nM
  TGI: 1110 nM
[9]
  GI50: 386 nM
  TGI: 4350 nM
[10]
  GI50: 335 nM
  TGI: 919 nM
[11]
  GI50: 326 nM
  TGI: 1190 nM
[12]
  GI50: 35.1 nM
  TGI: 105 nM
[13]
  GI50: 206 nM
  TGI: 691 nM
[14]
  GI50: 278 nM
  TGI: 1080 nM
[15]
  GI50: 269 nM
  TGI: 992 nM
[16]
  GI50: 42.3 nM
  TGI: 133 nM
[17]
  GI50: 246 nM
  TGI: 751 nM
[18]
  GI50: 101 nM
  TGI: 707 nM
[19]
  GI50: 94.9 nM
  TGI: 1110 nM
[20]
  GI50: 269 nM
  TGI: 813 nM
[21]
  GI50: 207 nM
  TGI: 1070 nM
[22]
  GI50: 164 nM
  TGI: 532 nM
[23]
  GI50: 148 nM
  TGI: 624 nM
[24]
  GI50: 211 nM
  TGI: 594 nM
[25]
  GI50: 164 nM
  TGI: 443 nM
[26]
  GI50: 178 nM
  TGI: 713 nM
[27]
  GI50: 228 nM
  TGI: 1200 nM
[28]
  GI50: 164 nM
  TGI: 892 nM
[29]
  GI50: 155 nM
  TGI: 925 nM
[30]
  GI50: 222 nM
  TGI: 1060 nM
[31]
  GI50: 241 nM
  TGI: 811 nM
[32]
  GI50: 207 nM
  TGI: 663 nM
[33]
  GI50: 349 nM
  TGI: 1270 nM
[34]
  GI50: 208 nM
  TGI: 660 nM
[35]
  GI50: 104 nM
  TGI: 343 nM
[36]
  GI50: 124 nM
  TGI: 647 nM
[37]
  GI50: 32 nM
  TGI: 108 nM
[38]
  GI50: 270 nM
  TGI: 1030 nM
[39]
  GI50: 180 nM
  TGI: 543 nM
[40]
  GI50: 154 nM
  TGI: 423 nM
[41]
  GI50: 174 nM
  TGI: 487 nM
[42]
  GI50: 277 nM
  TGI: 795 nM
[43]
  GI50: 293 nM
  TGI: 2140 nM
[44]
  GI50: 129 nM
  TGI: 513 nM
[45]
  GI50: 219 nM
  TGI: 682 nM
[46]
  GI50: 116 nM
  TGI: 406 nM
[47]
  GI50: 120 nM
  TGI: 501 nM
